The experiment concerns genotype 1b (Con-1) HCV replicon. In words: HCV replicon luciferase assay. Format: cell-based. As to conditions: 1b replicon, Huh-7 cells, Renilla luciferase, 3 days incubation. How it is done:
The cell lines used to evaluate compounds consist of a human hepatocyte derived cell line (Huh-7) that constitutively expresses a genotype 1b (Con-1) HCV replicon or a genotype 1b (Con-1) HCV replicon with an asparagine replacing the cysteine at amino acid 316, or a genotype 2a (JFH-1) replicon, containing a Renilla luciferase reporter gene. These cells were maintained in Dulbecco's modified Eagle medium (DMEM) containing 10% FBS, 100 U/mL penicillin/streptomycin and 1.0 mg/mL G418.
After 3 days incubation at 37° C., cells were analyzed for Renilla Luciferase activity using the EnduRen substrate (Promega cat #E6485) according to the manufacturer's directions. Briefly, the EnduRen substrate was diluted in DMEM and then added to the plates to a final concentration of 7.5 μM. The plates were incubated for at least 1 h at 37° C. then read on a Viewlux Imager (PerkinElmer) using a luminescence program.
On the technique in general: A replicon is a self-replicating genome or part of one, used to study replication in cells.

The term EC50 denotes the concentration needed to bring the measured effect to its halfway point. Low readings indicate a more potent agent, high ones a less potent agent.

Take `CNC(=O)c1c(-c2ccc(F)cc2)oc2nc(CCC(F)(F)F)c(-c3cccc(C(=O)NC(C)(C)c4ncon4)c3)cc12` [Example 1, 5-(3-((2-(1,2,4-oxadiazol-3-yl)propan-2-yl)carbamoyl)phenyl)-2-(4-fluorophenyl)-N-methyl-6-(3,3,3-trifluoropropyl)furo[2,3-b]pyridine-3-carboxamide]: the EC50 (Hepatitis C virus, Huh-7, 72 h) is 3.02 nM. In other words, the single-digit nanomolar range.
The compound `CNC(=O)c1c(-c2ccc(F)cc2)oc2nc(NCC(F)(F)F)c(-c3cccc(C(=O)NC4(c5ncon5)CCC4)c3)cc12` [Example 5, 5-(3-((1-(1,2,4-oxadiazol-3-yl)cyclobutyl)carbamoyl)phenyl)-2-(4-fluorophenyl)-N-methyl-6-((2,2,2-trifluoroethyl)amino)furo[2,3-b]pyridine-3-carboxamide] had an EC50 (Hepatitis C virus, Huh-7, 72 h) of 4.96 nM. This EC50 is about 1.6-fold higher than that of the compound before.
The same measure, in the same setting: then `CNC(=O)c1c(-c2ccc(F)cc2)oc2nc(NCC(F)(F)F)c(-c3cccc(C(=O)NC4(c5noc(C)n5)CC4)c3)cc12` [Example 6, 2-(4-fluorophenyl)-N-methyl-5-(3-((1-(5-methyl-1,2,4-oxadiazol-3-yl)cyclopropyl)carbamoyl)phenyl)-6-((2,2,2-trifluoroethyl)amino)furo[2,3-b]pyridine-3-carboxamide], with 4.76 nM; and `CNC(=O)c1c(-c2ccc(F)cc2)oc2nc(NCC(F)(F)F)c(-c3cccc(C(=O)NC(C)(C)c4nc(C)no4)c3)cc12` [Example 7, 2-(4-fluorophenyl)-N-methyl-5-(3-((2-(3-methyl-1,2,4-oxadiazol-5-yl)propan-2-yl)carbamoyl)phenyl)-6-((2,2,2-trifluoroethyl)amino)furo[2,3-b]pyridine-3-carboxamide], with 3.46 nM; and `CNC(=O)c1c(-c2ccc(F)cc2)oc2nc(NCC(F)(F)F)c(-c3cccc(C(=O)NC4(c5nc(C)no5)CC4)c3)cc12` [Example 8, 2-(4-fluorophenyl)-N-methyl-5-(3-((1-(3-methyl-1,2,4-oxadiazol-5-yl)cyclopropyl)carbamoyl)phenyl)-6-((2,2,2-trifluoroethyl)amino)furo[2,3-b]pyridine-3-carboxamide], with 5.6 nM.
For the compound `CNC(=O)c1c(-c2ccc(F)cc2)oc2nc(CCC(F)(F)F)c(-c3cccc(C(=O)NC(C)(C)c4noc(C)n4)c3)cc12` [Example 10, 2-(4-fluorophenyl)-N-methyl-5-(3-((2-(5-methyl-1,2,4-oxadiazol-3-yl)propan-2-yl)carbamoyl)phenyl)-6-(3,3,3-trifluoropropyl)furo[2,3-b]pyridine-3-carboxamide], the response (Hepatitis C virus, Huh-7, 72 h) was half-maximal at 3.61 nM (EC50). Compared with the last compound, the EC50 is about 1.6-fold lower.
In the case of `CNC(=O)c1c(-c2ccc(F)cc2)oc2nc(NCC(F)(F)F)c(-c3cccc(C(=O)NC(C)(C)c4noc(C)n4)c3)cc12` [Example 11, 2-(4-fluorophenyl)-N-methyl-5-(3-((2-(5-methyl-1,2,4-oxadiazol-3-yl)propan-2-yl)carbamoyl)phenyl)-6-((2,2,2-trifluoroethyl)amino)furo[2,3-b]pyridine-3-carboxamide], the concentration for a half-maximal effect (EC50) (Hepatitis C virus, Huh-7, 72 h) stood at 4.96 nM.
On the same count and under the same terms, the result for `CNC(=O)c1c(-c2ccc(F)cc2)oc2nc(NCC(F)(F)F)c(-c3cccc(C(=O)NC(C)(C)c4ncon4)c3)cc12` [Example 12, 5-(3-((2-(1,2,4-oxadiazol-3-yl)propan-2-yl)carbamoyl)phenyl)-2-(4-fluorophenyl)-N-methyl-6-((2,2,2-trifluoroethyl)amino)furo[2,3-b]pyridine-3-carboxamide] reads 2.95 nM; that for `CNC(=O)c1c(-c2ccc(F)cc2)oc2nc(NCC(F)(F)F)c(-c3ccc(OC)c(C(=O)NC(C)(C)c4ncon4)c3)cc12` [Example 14, 5-(3-((2-(1,2,4-oxadiazol-3-yl)propan-2-yl)carbamoyl)-4-methoxyphenyl)-2-(4-fluorophenyl)-N-methyl-6-((2,2,2-trifluoroethyl)amino)furo[2,3-b]pyridine-3-carboxamide], 6.67 nM.
`CCC(C)c1nc2oc(-c3ccc(F)cc3)c(C(=O)NC)c2cc1-c1cccc(C(=O)NC(C)(C)c2ncon2)c1` (stereo not shown) [Example 15, 5-(3-((2-(1,2,4-oxadiazol-3-yl)propan-2-yl)carbamoyl)phenyl)-6-(sec-butyl)-2-(4-fluorophenyl)-N-methylfuro[2,3-b]pyridine-3-carboxamide] returned a concentration giving a half-maximal response (EC50) of 4.98 nM. In other words, the single-digit nanomolar range.
Same read-out and setting: the result for `CCC(C)c1nc2oc(-c3ccc(F)cc3)c(C(=O)NC)c2cc1-c1cccc(C(=O)NC(C)(C)c2ncon2)c1` (stereo not shown) [Example 16, 5-(3-((2-(1,2,4-oxadiazol-3-yl)propan-2-yl)carbamoyl)phenyl)-6-(sec-butyl)-2-(4-fluorophenyl)-N-methylfuro[2,3-b]pyridine-3-carboxamide] reads 20 nM.
Turning to `[2H]C([2H])([2H])Oc1ncc(-c2cc3c(C(=O)NC)c(-c4ccc(F)cc4)oc3nc2NCC(F)(F)F)cc1C(=O)NC(c1ncon1)(C([2H])([2H])[2H])C([2H])([2H])[2H]` [Example 18, 5-[2-(4-fluorophenyl)-3-(methylcarbamoyl)-6-[(2,2,2-trifluoroethyl)amino]furo[2,3-b]pyridin-5-yl]-2-(^2H3)methoxy-N-[2-(1,2,4-oxadiazol-3-yl)(^2H6)propan-2-yl]pyridine-3-carboxamide], the midpoint of the response (Hepatitis C virus, Huh-7, 72 h), the EC50, lay at 4.32 nM.
Still for that read-out and setting: the result for `[2H]c1nc(C(NC(=O)c2cc(-c3cc4c(C(=O)NC)c(-c5ccc(F)cc5)oc4nc3NCC(F)(F)F)cnc2OC([2H])([2H])[2H])(C([2H])([2H])[2H])C([2H])([2H])[2H])no1` [Example 19, 5-[2-(4-fluorophenyl)-3-(methylcarbamoyl)-6-[(2,2,2-trifluoroethyl)amino]furo[2,3-b]pyridin-5-yl]-2-(^2H3)methoxy-N-{2-[(^2H)-1,2,4-oxadiazol-3-yl](^2H6)propan-2-yl}pyridine-3-carboxamide] reads 5.77 nM; that for `[2H]C([2H])([2H])Oc1ncc(-c2cc3c(C(=O)NC)c(-c4ccc(F)cc4)oc3nc2OCC(F)(F)F)cc1C(=O)NC(c1ncon1)(C([2H])([2H])[2H])C([2H])([2H])[2H]` [Example 21, 5-[2-(4-fluorophenyl)-3-(methylcarbamoyl)-6-(2,2,2-trifluoroethoxy)furo[2,3-b]pyridin-5-yl]-2-(^2H3)methoxy-N-[2-(1,2,4-oxadiazol-3-yl)(^2H6)propan-2-yl]pyridine-3-carboxamide], 2.23 nM; that for `[2H]C([2H])([2H])Oc1ncc(-c2cc3c(C(=O)NC)c(-c4ccc(F)cc4)oc3nc2OCC(F)(F)F)cc1C(=O)NC(C)(C)c1ncon1` [Example 22, 5-[2-(4-fluorophenyl)-3-(methylcarbamoyl)-6-(2,2,2-trifluoroethoxy)furo[2,3-b]pyridin-5-yl]-2-(^2H3)methoxy-N-[2-(1,2,4-oxadiazol-3-yl)propan-2-yl]pyridine-3-carboxamide], 1.7 nM.
As to `[2H]C([2H])([2H])C(NC(=O)c1cc(-c2cc3c(C(=O)NC)c(-c4ccc(F)cc4)oc3nc2NCC(F)(F)F)cnc1OC)(c1ncon1)C([2H])([2H])[2H]` [Example 26, 5-[2-(4-fluorophenyl)-3-(methylcarbamoyl)-6-[(2,2,2-trifluoroethyl)amino]furo[2,3-b]pyridin-5-yl]-2-methoxy-N-[2-(1,2,4-oxadiazol-3-yl)(^2H6)propan-2-yl]pyridine-3-carboxamide], the response (Hepatitis C virus, Huh-7, 72 h) was half-maximal at 6.26 nM (EC50).
Still for that read-out and setting: then `[2H]C([2H])([2H])Oc1ncc(-c2cc3c(C(=O)NC)c(-c4ccc(F)cc4)oc3nc2NCC(F)(F)F)cc1C(=O)NC(C)(C)c1ncon1` [Example 27, 5-[2-(4-fluorophenyl)-3-(methylcarbamoyl)-6-[(2,2,2-trifluoroethyl)amino]furo[2,3-b]pyridin-5-yl]-2-(^2H3)methoxy-N-[2-(1,2,4-oxadiazol-3-yl)propan-2-yl]pyridine-3-carboxamide], with 4.32 nM; and `CNC(=O)c1c(-c2ccc(F)cc2)oc2nc(NCC(F)(F)F)c(-c3cnc(OC)c(C(=O)NC(C)(C)c4ncon4)c3)cc12` [Example 29, 5-[2-(4-fluorophenyl)-3-(methylcarbamoyl)-6-[(2,2,2-trifluoroethyl)amino]furo[2,3-b]pyridin-5-yl]-2-methoxy-N-[2-(1,2,4-oxadiazol-3-yl)propan-2-yl]pyridine-3-carboxamide], with 8.01 nM.
The same measure, in the same setting: the result for `[2H]C([2H])([2H])Oc1ncc(-c2cc3c(C(=O)NC)c(-c4ccc(F)cc4)oc3nc2CCC(F)(F)F)cc1C(=O)NC(C)(c1ncon1)C1CC1` (stereo not shown) [Example 30, N-[1-cyclopropyl-1-(1,2,4-oxadiazol-3-yl)ethyl]-5-[2-(4-fluorophenyl)-3-(methylcarbamoyl)-6-(3,3,3-trifluoropropyl)furo[2,3-b]pyridin-5-yl]-2-(^2H3)methoxypyridine-3-carboxamide] reads 4.35 nM.

Source of the values: patent US8962651B2, “Compounds for the treatment of hepatitis C” (Bristol-Myers Squibb Company, priority 2013, dated 2015).
